Test results: publication PMC9544090, “BioWF: A Naturally‐Fused, Di‐Domain Biocatalyst from Biotin Biosynthesis Displays an Unexpectedly Broad Substrate Scope” (Chembiochem, 2022)

Legend:
CaBioWF [1] = details: ATP 1 mM, CoASH 1 mM, MgCl2 5 mM, pH 8, 30 °C, 5 h; mutant mass 68567 Da printed, so tag probably kept
CaBioWF [2] = molecular target: T1, CaBioWF (Corynebacterium amycolatum, UniProt E2MUP3); assay: UV-Vis titration, PLP ketoenamine peak at […] nm, hyperbolic fit; format: binding
T1 construct: full-length natural di-domain fusion; synthetic gene in pET-28a, E. coli BL21(DE3); His tag removed by TEV; homodimer by SEC

O=C(O)CCCCCC(=O)O = assay: purified protein; details: BioW domain, CoASH 1 mM, ATP 1 mM, MgCl2 10 mM, pH 8, 30 °C

Chain of CaBioWF (DOC9544090_1 entry or part of it F192Y): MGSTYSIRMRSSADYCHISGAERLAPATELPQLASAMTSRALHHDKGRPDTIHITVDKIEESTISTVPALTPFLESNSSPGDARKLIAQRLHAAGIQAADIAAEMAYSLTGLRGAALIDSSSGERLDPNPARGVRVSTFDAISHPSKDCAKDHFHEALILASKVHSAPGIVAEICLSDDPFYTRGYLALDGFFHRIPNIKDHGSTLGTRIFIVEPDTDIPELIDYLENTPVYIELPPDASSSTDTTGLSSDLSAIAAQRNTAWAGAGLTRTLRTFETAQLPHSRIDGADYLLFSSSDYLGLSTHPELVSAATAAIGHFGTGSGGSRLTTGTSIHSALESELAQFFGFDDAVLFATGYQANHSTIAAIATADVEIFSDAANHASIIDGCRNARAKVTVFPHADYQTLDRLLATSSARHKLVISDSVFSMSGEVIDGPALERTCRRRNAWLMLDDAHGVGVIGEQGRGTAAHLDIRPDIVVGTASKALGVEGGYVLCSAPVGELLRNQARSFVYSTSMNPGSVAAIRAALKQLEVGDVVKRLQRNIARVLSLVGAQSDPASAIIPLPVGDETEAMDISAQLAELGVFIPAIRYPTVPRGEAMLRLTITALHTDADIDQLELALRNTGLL

With O=C(O)CCCCCC(=O)O [DC7, pimelic acid] as the molecule, how does the “HPLC of acyl-CoA product, 260 nm” value (CaBioWF [1]) read?
Its value is “acyl‐CoA product formation was only observed for the natural DC7 pimelic acid substrate”.

How did the Kd (CaBioWF [2]) turn out when NCC(=O)O [Gly] was run?
Its Kd is 16.1 ± 1.95 mM.

For C[C@H](N)C(=O)O [ʟ‐Ala], which Kd (CaBioWF [2]) is on record?
Its Kd is 1.83 ± 0.25 mM.

For “CaBioWF (Corynebacterium amycolatum SK46)”, which Km (O=C(O)CCCCCC(=O)O) is on record?
The Km was 58.6 ± 3 µM.

And the kcat (O=C(O)CCCCCC(=O)O)?
The kcat was 0.21 s⁻¹.
